Measurements as given in paper PMC7956587, “Molecular Docking Studies and Biological Evaluation of Berberine–Benzothiazole Derivatives as an Anti-Influenza Agent via Blocking of Neuraminidase” (International Journal of Molecular Sciences, 2021).
Like-named read-outs stand apart in the source and are kept apart here.

Key:
[1] = system: influenza A virus A/PR/8/34 (H1N1); assay: In vitro antiviral bioassay (CPE reduction, SRB) in MDCK cells; assay type: cell-based; details: for IC50: Influenza A virus, MDCK, 48 h; for TI A/PR/8/34 (H1N1): Therapeutic index, TI = CC50/IC50
[2] = system: influenza B virus B/Lee/40; assay: as above; assay type: cell-based; details: for IC50: Influenza B virus; for TI B/LEE/40: Therapeutic index, TI = CC50/IC50
[3] = system: influenza B virus B/Maryland/1/59; assay: as above; assay type: cell-based; details: for IC50: Influenza B virus, read-out: IC50 B/MARYLAND/1/59; for TI B/MARYLAND/1/59: Therapeutic index, TI = CC50/IC50
in vitro = details: dog
MDCK cells = details: dog, 48 h
[4] = system: influenza A virus A/Vic/3/75 (H3N2); assay: In vitro antiviral bioassay (CPE reduction, SRB) in MDCK cells; assay type: cell-based; details: for IC50: Influenza A virus, H3N2, MDCK, 48 h; for TI A/VIC/3/75 (H3N2): Therapeutic index, TI = CC50/IC50
[5] = molecular target: influenza virus neuraminidase (Influenza A virus, UniProt P03468); assay: Viral neuraminidase inhibition assay (NA-Star kit); assay type: biochemical, influenza A/PR/8/34 virus; details: for activity at 0.1 µg/mL: at 0.1 μg/mL; for activity at 0.1 µg/mL / activity at 1 µg/mL / activity at 10 µg/mL: (Treatment/Virus) × 100, remaining activity; for activity at 1 µg/mL: at 1 μg/mL; for activity at 10 µg/mL: at 10 μg/mL; for NA inhibition activity (in words): compared with oseltamivir, Figure 1
Sequence of influenza virus neuraminidase (P03468 whole entry, looked up): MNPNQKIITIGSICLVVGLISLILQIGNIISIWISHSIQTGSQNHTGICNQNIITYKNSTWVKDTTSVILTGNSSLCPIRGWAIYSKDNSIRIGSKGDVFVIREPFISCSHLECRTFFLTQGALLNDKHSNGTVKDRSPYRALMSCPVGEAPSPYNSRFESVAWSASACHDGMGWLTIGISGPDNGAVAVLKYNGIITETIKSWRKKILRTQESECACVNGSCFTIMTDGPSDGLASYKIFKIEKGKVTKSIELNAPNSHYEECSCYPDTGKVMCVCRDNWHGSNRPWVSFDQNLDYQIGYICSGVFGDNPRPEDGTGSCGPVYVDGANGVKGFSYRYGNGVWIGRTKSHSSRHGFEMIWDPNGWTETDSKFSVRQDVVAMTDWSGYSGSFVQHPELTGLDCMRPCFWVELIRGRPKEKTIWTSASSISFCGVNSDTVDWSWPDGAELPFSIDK

[6] = Cytotoxicity on MDCK cells, SRB method; details: dog
[7] = MDCK cells, 50 TCID50, 48 h, mean ± S.D., triplicate

Row | Structure (SMILES) | IC50 [1] | TI A/PR/8/34 (H1N1) [1] | IC50 [2, 7] | TI B/LEE/40 [2] | IC50 [3, 7] | TI B/MARYLAND/1/59 [3] | CC50 at 48 h (in vitro) | CC50 (MDCK cells) | IC50 [4] | TI A/VIC/3/75 (H3N2) [4] | activity at 0.1 µg/mL [5] | activity at 1 µg/mL [5] | activity at 10 µg/mL [5] | NA inhibition activity (in words) [5] | IC50 A/PR/8/34 (H1N1) [1] | IC50 B/LEE/40 [2, 7] | IC50 B/MARYLAND/1/59 [3, 7] | IC50 A/VIC/3/75 (H3N2) [4] | IC50 ([3]; MDCK, 48 h) | CC50 at 48 h [6]
1 | COc1ccc2cc3[n+](cc2c1OCCCCCNc1nc2ccc(Br)cc2s1)CCc1cc2c(cc1-3)OCO2 [BBD 8] | 68.02 ± 0.67 µg/mL | 4.835 | 74.8 ± 1.83 µg/mL | 4.395 | 81.2 ± 0.91 µg/mL | 4.052 | > 100 µg/mL | 328.9 ± 1.065 µg/mL | 70.7 ± 0.94 µg/mL | 4.65 | – | – | – | – | – | – | – | – | – | –
2 | COc1ccc2cc3[n+](cc2c1OCCCCCNNc1nc2ccccc2s1)CCc1cc2c(cc1-3)OCO2 [BBD 14] | 40.3 ± 0.725 µg/mL | 7.543 | 70.3 ± 2.24 µg/mL | 4.327 | 73.4 ± 2.17 µg/mL | 4.143 | > 100 µg/mL | 304.3 ± 1.261 µg/mL | 56.3 ± 2.06 µg/mL | 5.403 | – | – | – | – | – | – | – | – | – | –
3 | COc1ccc2cc3[n+](cc2c1OCCCCCNc1nc2ccc(I)cc2s1)CCc1cc2c(cc1-3)OCO2 [BBD 9] | 54.5 ± 1.75 µg/mL | 5.547 | 69.8 ± 2.57 µg/mL | 4.331 | 78.5 ± 2.31 µg/mL | 3.851 | > 100 µg/mL | 302.5 ± 1.771 µg/mL | 54.2 ± 2.09 µg/mL | 5.585 | – | – | – | – | – | – | – | – | – | –
4 | COc1ccc2cc3[n+](cc2c1OCCCCCNc1nc2ccc([N+](=O)[O-])cc2s1)CCc1cc2c(cc1-3)OCO2 [BBD 2] | 30.9 ± 0.619 µg/mL | 11.01 | 61.7 ± 1.65 µg/mL | 5.516 | 65.3 ± 1.88 µg/mL | 5.212 | > 100 µg/mL | 340.5 ± 1.180 µg/mL | 52.2 ± 2.07 µg/mL | 6.525 | – | – | – | – | – | – | – | – | – | –
5 | COc1ccc2cc3[n+](cc2c1OCCCCCNc1nc2c(F)cc(F)cc2s1)CCc1cc2c(cc1-3)OCO2 [BBD 11] | 27.2 ± 0.394 µg/mL | 17.19 | 85.1 ± 3.74 µg/mL | 5.494 | 98.3 ± 2.21 µg/mL | 4.75 | > 100 µg/mL | 467.7 ± 2.647 µg/mL | 48.4 ± 2.2 µg/mL | 9.655 | 40.8% | 33.2% | 18.4% | – | – | – | – | – | – | –
6 | COc1ccc2nc(NCCCCCOc3c(OC)ccc4cc5[n+](cc34)CCc3cc4c(cc3-5)OCO4)sc2c1 [BBD 5] | 39.54 ± 0.326 µg/mL | 7.749 | 36.9 ± 1.52 µg/mL | 8.294 | 44.3 ± 2.06 µg/mL | 6.921 | > 100 µg/mL | 306.4 ± 3.612 µg/mL | 57.3 ± 2.13 µg/mL | 5.343 | – | – | – | moderate NA inhibition activity | – | – | – | – | – | –
7 | COc1ccc2cc3[n+](cc2c1OCCCCCNc1nc2ccc(C(=O)O)cc2s1)CCc1cc2c(cc1-3)OCO2 [BBD 3] | 35.9 ± 0.659 µg/mL | 10.65 | 53.9 ± 1.36 µg/mL | 7.105 | 56.4 ± 1.06 µg/mL | 6.784 | > 100 µg/mL | 382.9 ± 2.964 µg/mL | 60.7 ± 1.06 µg/mL | 6.303 | – | – | – | – | – | – | – | – | – | –
8 | COc1ccc2cc3[n+](cc2c1OCCCCCNc1nc2ccc(Cl)cc2s1)CCc1cc2c(cc1-3)OCO2 [BBD 7] | 24.3 ± 0.419 µg/mL | 19.08 | 81.4 ± 3.01 µg/mL | – | 88.1 ± 1.16 µg/mL | 5.259 | > 100 µg/mL | 463.5 ± 3.386 µg/mL | 38.8 ± 2.51 µg/mL | 11.94 | 37.4% | 32.1% | 14.5% | – | – | – | – | – | – | –
9 | COc1ccc2cc3[n+](cc2c1OCCCCCNc1nc2ccccc2s1)CCc1cc2c(cc1-3)OCO2 [BBD 1] | 25.2 ± 0.154 µg/mL | 17.32 | 55.5 ± 3.77 µg/mL | 7.874 | 55.1 ± 2.65 µg/mL | 7.924 | > 100 µg/mL | 436.7 ± 2.635 µg/mL | 45.1 ± 1.75 µg/mL | 9.672 | 40.3% | 30.4% | 15.6% | – | – | – | – | – | – | –
10 | COc1ccc2cc3[n+](cc2c1OCCCCCNc1nc2ccc(F)cc2s1)CCc1cc2c(cc1-3)OCO2 [BBD 10] | 30.5 ± 0.761 µg/mL | 10.18 | 64.6 ± 1.24 µg/mL | 4.812 | 75.7 ± 2.06 µg/mL | 4.100 | > 100 µg/mL | 310.6 ± 1.629 µg/mL | 49.9 ± 1.31 µg/mL | 6.228 | – | – | – | – | – | – | – | – | – | –
11 | CCOc1ccc2nc(NCCCCCOc3c(OC)ccc4cc5[n+](cc34)CCc3cc4c(cc3-5)OCO4)sc2c1 [BBD 6] | 42.8 ± 0.478 µg/mL | 5.176 | 38.8 ± 2.08 µg/mL | 5.712 | 36.9 ± 2.15 µg/mL | 6.003 | > 100 µg/mL | 221.4 ± 1.180 µg/mL | 60.4 ± 1.35 µg/mL | 3.663 | – | – | – | – | – | – | – | – | – | –
12 | COc1ccc2cc3[n+](cc2c1OCCCCCNc1nc2ccc(C)cc2s1)CCc1cc2c(cc1-3)OCO2 [BBD 4] | 37.3 ± 0.669 µg/mL | 8.655 | 43.2 ± 0.86 µg/mL | 7.406 | 41.6 ± 0.67 µg/mL | 7.762 | > 100 µg/mL | 322.6 ± 2.543 µg/mL | 55 ± 0.87 µg/mL | 5.862 | – | – | – | moderate NA inhibition activity | – | – | – | – | – | –
13 | COc1ccc2cc3[n+](cc2c1OCCCCCNc1nc2ccc(C#N)cc2s1)CCc1cc2c(cc1-3)OCO2 [BBD 13] | – | – | – | – | – | – | 45.1 ± 0.864 µg/mL | – | – | – | – | – | – | – | did not show any activity | did not show any activity | did not show any activity | did not show any activity | – | –
14 | COc1ccc2cc3[n+](cc2c1OC)CCc1cc2c(cc1-3)OCO2 [BERBERINE, Berberine] | 36.1 ± 1.57 µg/mL | 1.808 | 60.8 ± 1.86 µg/mL | 1.07 | – | 1.196 | – | – | 41.6 ± 2.04 µg/mL | 1.571 | – | – | – | – | – | – | – | – | 54.6 ± 1.45 µg/mL | 65.3 ± 1.92 µg/mL
15 | CCOC(=O)C1=C[C@@H](OC(CC)CC)[C@H](NC(C)=O)[C@@H](N)C1 [OSELTAMIVIR, Oseltamivir phosphate, reference compound] | 11.6 ± 1.43 µg/mL | 17.75 | 55.9 ± 1.13 µg/mL | 3.67 | – | 4.64 | – | – | 22.1 ± 1.07 µg/mL | 9.27 | 39.1% | 29.1% | 18.3% | – | – | – | – | – | 44.2 ± 1.83 µg/mL | > 100 µg/mL
16 | COc1ccc2cc3[n+](cc2c1OCCCCCNc1nc2ccc(C(F)(F)F)cc2s1)CCc1cc2c(cc1-3)OCO2 [BBD 12] | 28.7 ± 0.514 µg/mL | 10.52 | 67.7 ± 1.52 µg/mL | 4.468 | 66.2 ± 1.82 µg/mL | 4.565 | > 100 µg/mL | 302.3 ± 2.446 µg/mL | 44.6 ± 1.65 µg/mL | 6.784 | – | – | – | – | – | – | – | – | – | –
